Experimental data from article PMC8891185 (The Journal of Nutrition, 2021).

Columns and labels:
[1] = anemic infants; 5 mg/kg of Fe daily for 28 d; cited from earlier work
[2] = adult men; without AA; consumed in 1 or separate whole-maize porridge meals; cited from earlier work
[3] = 9-mo-old, iron-replete children, cited from earlier work; for iron bioavailability from inhibitory WG cereal: PA:Fe 2.2:1, no added AA
[4] = Fractional iron absorption
[5] = iron-deficient infants; AA at a molar ratio of 2:1; cited from earlier work

## NCC(=O)[O-].NCC(=O)[O-].[Fe+2] [FeBG, ferrous bisglycinate]
[1]
  hemoglobin change: significant hemoglobin increases
[2]
  iron bioavailability, times higher than FeSO4: 4−6 times
[3]
  iron bioavailability from inhibitory WG cereal: 5.2%
  iron bioavailability from vegetable puree: 9%

## O=C([O-])/C=C/C(=O)[O-].[Fe+2] [Fefum, ferrous fumarate]
[4]; WG-oat cereal with AA, nonsignificant difference between FeBG and Fefum
  bioavailability of iron when consumed in WG-oat cereal: 9.2%
[4]; refined wheat reference meal with AA
  iron bioavailability in the noninhibitory reference meal: 12.1%

## ferrous sulfate [FeSO4]
[1]
  hemoglobin change: significant hemoglobin increases
[5]
  bioavailability of iron as FeSO4 from refined wheat-based infant cereal, with dephytinization: 8.5%
  bioavailability of iron as FeSO4 from refined wheat-based infant cereal, without dephytinization: 8.7%
[3]
  iron bioavailability from inhibitory WG cereal: 3.8%
  iron bioavailability from vegetable puree: 9.9%
